Measured values: patent US12491226B2, “Mastic-derived natural protectants” (BARENTZ NORTH AMERICA, LLC, priority 2018, dated 2025)

What was measured:
[1] = system: mixture of bacteria; experiment: CTFA Preservative Challenge Test on shampoo, mixed bacteria (with Kull synergism calculation); format: cell-based; conditions: for Mixed Bacteria Day 7 Count / Mixed Bacteria Day 14 Count: shampoo containing sample, initial count 4×10^6 cfu/mL; for Mixed Bacteria Day 7 Count: surviving organisms on day 7; for Mixed Bacteria Day 14 Count: surviving organisms on day 14; for Mixed Bacteria Day 7 kill reduction / Mixed Bacteria Day 14 kill reduction: shampoo, versus initial count 4×10^6 cfu/mL
Protocol: (§1) The CTFA Preservative Challenge Test was performed on a shampoo containing the samples below against a mixture of fungi (C. albicans (ATCC #10231) and A. brasiliensis (ATCC #16404)) having an initial count of 7.9×10^5 cfu/mL or a mixture of bacteria having an initial count of 4×10^6 cfu/mL. The shampoos inoculated with bacteria were allowed to stand for 14 days and the shampoos inoculated with fungi were allowed to stand for 7 days. The samples were evaluated for surviving organisms on day 7 for fungi-innoculated shampoos and days 7 and 14 for bacteria-innoculated shampoos.
From the table, synergism for the combinations above against mixed bacteria in shampoo was calculated by the method described in C. E. Kull et al., “Mixtures of Quaternary Ammonium Compounds and Long-chain Fatty Acids as Antifungal Agents”, Applied Microbiology, 9:538-541 (1961). The synergism value (QA/Qa+QB/Qb) was determined. […] Qa is the concentration of the first component alone (in percent by weight) required to yield 100% retardation of the bacteria. Qb is the concentration of the second component alone (in percent by weight) required to yield 100% retardation of the bacteria. When the value of (QA/Qa+QB/Qb) is less than one, the mixture is synergistic. Values for (QA/Qa+QB/Qb) of 1 and greater represent an additive effect and an antagonistic effect, respectively. Here, (QA/Qa+QB/Qb) is (([…])+([…]) or <0.75. Accordingly, the mixture of 0.2% mastic oil and 0.05% piroctine olamine is synergistic. The mixture of 2% mastic water and 2% ELA, the mixture of 2% mastic water and 0.5% sodium p-anisate, and the mixture of 4% mastic water and 1% quinic acid are also synergistic.

[2] = system: mixture of fungi (C. albicans (ATCC #10231) and A. brasiliensis (ATCC #16404)); experiment: CTFA Preservative Challenge Test on shampoo, mixed fungi; format: cell-based; conditions: for Mixed Fungi Day 7 Count: shampoo containing sample, initial count 7.9×10^5 cfu/mL, surviving organisms on day 7; for Mixed Fungi Day 7 kill reduction: shampoo, versus initial count 7.9×10^5 cfu/mL
Protocol: as §1

Row | SMILES | Mixed Bacteria Day 7 Count [1] | Mixed Bacteria Day 14 Count [1] | Mixed Bacteria Day 7 kill reduction [1] | Mixed Bacteria Day 14 kill reduction [1] | Mixed Fungi Day 7 Count [2] | Mixed Fungi Day 7 kill reduction [2]
1 | Cc1cc(CC(C)CC(C)(C)C)n(O)c(=O)c1.NCCO (stereo not drawn) [0.1% Piroctine olamine, Piroctine olamine] | 1.2 × 10^5 cfu/mL | 1.3 × 10^5 cfu/mL | (<97% kill | (<97% kill | 5.9 × 10^4 cfu/mL | (<90% kill
2 | COc1ccc(C(=O)[O-])cc1.[Na+] [1% Sodium p-anisate, sodium p-anisate] | 2.3 × 10^4 cfu/mL |  | (<99% kill |  |  | 
3 | O=C(O)[C@]1(O)C[C@@H](O)[C@@H](O)[C@H](O)C1 [2.5% Quinic acid, quinic acid] |  |  |  |  | 1.4 × 10^5 cfu/mL | (<90% kill
4 | CCCCCCCCCCCC(=O)N[C@@H](CCCN=C(N)N)C(=O)OCC.Cl [5% ELA HCl, ethyl lauroyl arginate HCl] |  | 1.3 × 10^2 cfu/mL |  | (<99.9% kill |  | 
